Experimental data published in patent US10028960B2, “Pyrimidine compounds as JAK kinase inhibitors” (THERAVANCE BIOPHARMA R&D IP, LLC, priority 2016, dated 2018).
Where two headings read alike, the source gives them in different places.

How the values were obtained:
Tyk2 = Tyk2 (Homo sapiens (Human), UniProt P29597); experiment: LanthaScreen JAK biochemical assay, Tyk2
Experimental: A panel of four LanthaScreen JAK biochemical assays (JAK1, 2, 3 and Tyk2) were carried in a common kinase reaction buffer (50 mM HEPES, pH 7.5, 0.01% Brij-35, 10 mM MgCl2, and 1 mM EGTA). Recombinant GST-tagged JAK enzymes and a GFP-tagged STAT1 peptide substrate were obtained from Life Technologies.

[1] = system: IL-13 induced STAT6 phosphorylation in HT-29 human colorectal adenocarcinoma cells; experiment: Cellular JAK potency assay: inhibition of IL-13 induced STAT6 phosphorylation; assay type: cell-based; conditions: Homo sapiens
[2] = Colon pharmacokinetics in rats; conditions: Sprague Dawley, rat, colon and plasma, po, 5 mg/kg
Experimental: The test compound was formulated in 0.5% methyl-cellulose in water and dosed via oral gavage at 3.2 mg/kg and 100 mg/kg to Sprague Dawley rats. At various time points (typically 0.5, 1, 3, 6, 24 hr) post dosing, blood samples were removed via cardiac puncture and intact colons were excised from the rats. Blood samples were centrifuged at 1500×g for 15 min to collect plasma. Colons were washed with ice cold phosphate buffered saline (PBS), weighed, and homogenized at a dilution of 1:10 in PBS. Plasma and colon levels of test compound were determined by LC-MS analysis against analytical standards constructed into a standard curve in the test matrix. A colon to plasma ratio was determined as the ratio of the colon AUC to the plasma AUC in μg hr/g.

Sequence of Tyk2 (P29597 whole entry): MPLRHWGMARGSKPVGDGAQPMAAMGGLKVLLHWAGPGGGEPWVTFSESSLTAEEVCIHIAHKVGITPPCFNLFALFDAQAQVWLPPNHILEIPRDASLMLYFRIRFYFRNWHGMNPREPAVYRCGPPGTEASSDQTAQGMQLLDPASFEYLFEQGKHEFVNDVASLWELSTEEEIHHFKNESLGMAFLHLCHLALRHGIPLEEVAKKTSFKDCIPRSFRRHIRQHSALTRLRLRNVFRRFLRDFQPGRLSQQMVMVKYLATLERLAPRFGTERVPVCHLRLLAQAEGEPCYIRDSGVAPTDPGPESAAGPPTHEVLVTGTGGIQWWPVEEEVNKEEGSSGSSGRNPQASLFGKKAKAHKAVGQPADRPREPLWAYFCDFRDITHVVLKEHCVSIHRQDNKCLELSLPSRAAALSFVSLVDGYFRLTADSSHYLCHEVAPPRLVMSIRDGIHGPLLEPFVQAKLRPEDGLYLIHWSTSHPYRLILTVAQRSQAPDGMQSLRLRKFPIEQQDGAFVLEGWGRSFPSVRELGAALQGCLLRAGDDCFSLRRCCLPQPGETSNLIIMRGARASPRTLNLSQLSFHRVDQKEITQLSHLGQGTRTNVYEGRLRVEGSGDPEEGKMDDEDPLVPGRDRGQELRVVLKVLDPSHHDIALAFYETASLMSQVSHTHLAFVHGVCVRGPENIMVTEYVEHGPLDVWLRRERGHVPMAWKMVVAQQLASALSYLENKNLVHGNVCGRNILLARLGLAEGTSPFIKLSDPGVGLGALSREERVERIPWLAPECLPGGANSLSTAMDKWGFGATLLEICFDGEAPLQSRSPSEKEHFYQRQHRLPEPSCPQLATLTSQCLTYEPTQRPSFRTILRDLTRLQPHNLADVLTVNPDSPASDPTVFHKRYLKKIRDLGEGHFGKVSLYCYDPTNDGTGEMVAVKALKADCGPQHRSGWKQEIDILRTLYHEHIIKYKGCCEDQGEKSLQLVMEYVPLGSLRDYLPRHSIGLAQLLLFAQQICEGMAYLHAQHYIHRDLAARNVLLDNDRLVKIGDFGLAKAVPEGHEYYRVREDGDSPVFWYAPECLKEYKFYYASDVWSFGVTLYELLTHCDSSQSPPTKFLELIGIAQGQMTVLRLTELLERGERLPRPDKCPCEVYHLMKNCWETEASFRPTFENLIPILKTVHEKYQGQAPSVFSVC

COc1cc(Nc2cc(CO)[nH]n2)nc(N(C)[C@@H]2C[C@H]3CCC[C@@H](C2)N3S(=O)(=O)N2CC(C#N)C2)n1 [Example 2, 1-(((1R,3s,5S)-3-((4-((5-(Hydroxymethyl)-1H-pyrazol-3-yl)amino)-6-methoxypyrimidin-2-yl)(methyl)amino)-9-azabicyclo[3.3.1]nonan-9-yl)sulfonyl)azetidine-3-carbonitrile]
Ki (Tyk2): 0.1 to 1 nM | IC50 ([1]; HT-29, cellular assay, Assay 2, read-out: IC50 for inhibition of IL-13): ≤ 50 nM | IC50 ([1]; IL-13 induced STAT6 phosphorylation, HT-29 cells, read-out: HT-29 (pIC50) (converted)): 31.6 to 200 nM | Kp [2]: > 250
